From US7371776B2, “Methods and compositions for treating cancer” (Mars, Incorporated, priority 2004, dated 2008)

Legend:
Format in all cases: cell-based, human
PKC-θ = test: Confirmation of LPS results by immunoblotting, MDA MB-231 cells; conditions: PVDF membranes
Procedure: (§1) The proteins affected by pentamer, as detected by LPS, were analyzed further by immunoblotting. Antibodies against the following proteins were used: Cdc2 (Tyr15), FKHR (Ser256), p53 (Ser37, Ser46 and Ser392), PKC-δ (Ser643), PKC-θ (Ser643/676), pRb (Ser795 and Ser807/811), SAPK/JNK (Thr183/Tyr185) and Stat 5 (Tyr694) (all antibodies were obtained from Cell Signaling).
(§2) Protein pellets from pentamer-treated MDA MB-231, MDA MB-468 and MCF-7 cells and corresponding DMSO-treated controls were lysed in PBS with 1% SDS and sonicated for 15 seconds at a power of five watts. Samples were then centrifuged at 10,000 rpm and supernatants transferred into clean tubes. Protein concentration was determined as descried above. Ten jig of each protein sample was separated by PAGE on 4-20% gradient gels (BioRad, Philadelphia, Pa.). Gels were either transferred to PVDF membranes (BioRad) or P-FILM membrane (stacks of 10 membranes) according to the manufacturer's instructions (20/20 Gene Systems). PVDF membranes were blocked for 1 hour in 0.5% casein solution (Vector Laboratories, Burlingame, Calif.), prior to incubation with primary antibodies. […] The membranes were incubated overnight at 4° C. in 1:500 dilutions of primary antibodies, washed three times in TBST for five minutes, incubated in HRP-conjugated secondary antibodies, washed again and incubated in ECL Plus Reagent (Amersham). Signals were visualized on BIOMAX MR film (Kodak, Rochester, N.Y.). Following incubation with primary antibodies, membranes were incubated in anti-GAPDH antibody (1:500 dilution; Chemicon, Temecula, Calif.). The presence of this protein was visualized with secondary antibody conjugated to alkaline phosphatase DuoLux substrate (Vector Laboratories).

PKC-δ = test: as above; conditions: PVDF membranes
Procedure: as §1, §2

SAPK/JNK = test: as above; conditions: PVDF membranes
Procedure: as §1, §2

Stat5 = test: as above; conditions: PVDF membranes
Procedure: as §1, §2

normal mortal HMECs = test: Crystal violet cellular proliferation assay; conditions: 100 μg/mL
From the text: Immortalized human mammary epithelial cells (HMECs), MCF-10A, 184A1N4 and 184B5, normal, finite-life-span HMECs (1001-8, CC-2551) at passage 8, originally derived from mammoplasty breast tissues, were purchased from Clonetics-BioWhittaker, Inc. (Waskersville, Md.). Cell lines generated by introduction of c-MYC, ErbB2 and RAS oncogene into MCF-10A cells (MCF-10A-ErbB2/Ras cells and MCF-10A-c-Myc) were also used.
Normal mortal HMECs were maintained according to the supplier's instructions in mammary epithelial cell growth medium (CC-3152) (Clonetics) supplemented with 52 μg of bovine pituitary extract per ml, 10 ng/mL of human EGF, 5 μg/mL of insulin, and 0.5 μg/mL of hydrocortisone and were grown in 37° C. incubators with low (0.1 to 0.2%) CO2 settings.
One×10^3 cells per well were seeded in 96 well dishes (Coming Costar, Cambridge, Mass.). Primary cultures of HMECs, A1N4 and 184B5 cells were evaluated at two different cell densities (seeded at 1×10^3 and 2×10^3 per well). […]
Cells were treated for 1, 2, 3, 6, 8 and 10 days, but in some cases, the samples were collected at days 2, 3, 4, 7 and 10 post-treatment. […] The optical density (OD) of samples was read at 550 nm on an Ultramark Microplate Imagining System (BioRad, Philadelphia, Pa.). […] Statistical significance was determined using the t test analysis.

PARP = PARP cleavage in MCF-7 cells; conditions: 48 hours treatment
From the text: Rabbit polyclonal poly (ADP-ribose) polymerase (PARP) (H-250) was obtained from Santa Cruz Biotechnology Inc., (Santa Cruz, Calif.). α-Tubulin antibody was obtained from Neomarkers, Fremont, Calif. All antibodies used for proteomics analysis were obtained from Cell Signaling (Beverly, Mass.), Upstate Biotechnology (Lake Placid, N.Y.), Neomarkers (Fremont, Calif.) and Santa Cruz (Santa Cruz, Calif.) (Table 2). Referring to Table 2, Abs designated as “mouse” were monoclonal Abs, and Abs designated as “rabbit” were polyclonal Abs. The ECL detection reagent was obtained from Amersham (Arlington Heights, Ill.).
To determine whether depolarization of the mitochondrial membrane, induced by pentamer leads to apoptotic cellular death in human breast cancer cells lines, MDA MB-231 and MCF-7 cells were examined for PARP cleavage products. Since PARP is one of the downstream substrates of the caspase cascade, it is an excellent marker of apoptosis [Soldani, C. et al., Apoptosis, 7: 321-328, 2002].

Oc1cc(O)c2c(c1)O[C@H](c1ccc(O)c(O)c1)[C@H](O)[C@H]2c1c(O)cc(O)c2c1O[C@H](c1ccc(O)c(O)c1)[C@H](O)[C@H]2c1c(O)cc(O)c2c1O[C@H](c1ccc(O)c(O)c1)[C@H](O)[C@H]2c1c(O)cc(O)c2c1O[C@H](c1ccc(O)c(O)c1)[C@H](O)[C@H]2c1c(O)cc(O)c2c1O[C@H](c1ccc(O)c(O)c1)[C@H](O)C2 [pentamer, pentameric procyanidin]
confirmation of LPS result on PKC-θ by immunoblotting (PKC-θ): not confirmed
confirmation of LPS result on PKC-δ by immunoblotting (PKC-δ): not confirmed
confirmation of LPS result on SAPK/JNK by immunoblotting (SAPK/JNK): not confirmed
confirmation of LPS result on Stat5 by immunoblotting (Stat5): not confirmed
growth inhibited, in comparison to DMSO-treated controls (normal mortal HMECs): 1.4 fold
cleaved PARP fragment (PARP): no cleaved PARP fragment was detected
full-length PARP (116 kDa) (PARP): decrease
